Source: ChEMBL document CHEMBL2448688, “Selection and optimization of hits from a high-throughput phenotypic screen against Trypanosoma cruzi. Exported from HEOS 25-Oct-2013. See also related datasets CHEMBL3137440 and CHEMBL3137386”
Values after ≈ are worked out from the molar mass of the structure shown. Values joined by “and” are separate entries in the source; they are usually repeats but may differ in a detail not shown here. Identical values can stand only once.

Assays:
[1] = in vitro; conditions: human, microsomes, t (1 / 2)
[2] = DNDI: Lipophilicity (gLogD) at pH 7.4; conditions: buffer, pH 7.4, logD
[3] = target: T1, CYP3A4 (Homo sapiens, UniProt P08684); experiment: DNDI: Human CYP3A4 inhibition at 1 uM determined using 6b-hydroxylation of testosterone; conditions: probe testosterone (6b-hydroxylation)
[4] = DNDI: Lipophilicity (gLogD) at pH 3; conditions: buffer, pH 3, logD
[5] = system: Trypanosoma cruzi; experiment: DNDI: Chagas in vivo at 20 mg/kg, 20 days 2x; format: functional, Tulahuen Swiss po
[6] = in vitro; conditions: human, microsomes
[7] = target: T1, CYP3A4; experiment: DNDI: Human CYP3A4 inhibition at 10 uM determined using 6b-hydroxylation of testosterone; conditions: probe testosterone (6b-hydroxylation)
[8] = target: Cytochrome P450 3A4 (Homo sapiens, UniProt P08684); experiment: DNDI: Human CYP3A4 inhibition determined using 6b-hydroxylation of testosterone
[9] = in vitro; conditions: human, microsomes, EH
[10] = DNDI: Solubility in 0.01M HCl at pH 2 determined by nephelometry; conditions: 0.01M HCl, pH 2, Kinetic
[11] = in vitro; conditions: rat, microsomes
[12] = in vitro; conditions: mouse, microsomes
[13] = in vitro; conditions: mouse, microsomes; remark: listed apart in the source
[14] = (§1) DNDI: Cytotoxicity in vitro, against rat skeletal myoblast (L-6) cells; conditions: L-6 cells (skeletal myoblasts), IC50
[15] = in vitro; conditions: rat, microsomes; remark: listed apart in the source
[16] = system: Trypanosoma cruzi; experiment: (§2) DNDI: Chagas in Vitro; format: functional, organism-based, Tulahuen C4 (LacZ)
[17] = system: Trypanosoma cruzi; experiment: as §2; format: functional, Tulahuen C4 (LacZ)
[18] = system: L6; experiment: as §1; conditions: L-6 cells (skeletal myoblasts)
[19] = DNDI: Solubility in phosphate buffer at pH 6.5 determined by nephelometry; conditions: phosphate buffer, pH 6.5, Kinetic
[20] = system: Leishmania infantum; experiment: DNDI: Leish (macro) in Vitro; format: functional, organism-based, MHOM/MA(BE)/67
[21] = system: Trypanosoma brucei rhodesiense; experiment: DNDI: HAT in Vitro; format: functional, organism-based, ATCC 30027; conditions: Trypanosoma brucei, ATCC 30027
[22] = Trypanosoma cruzi, Tulahuen C4 (LacZ)

Sequence of Cytochrome P450 3A4 (P08684 whole entry): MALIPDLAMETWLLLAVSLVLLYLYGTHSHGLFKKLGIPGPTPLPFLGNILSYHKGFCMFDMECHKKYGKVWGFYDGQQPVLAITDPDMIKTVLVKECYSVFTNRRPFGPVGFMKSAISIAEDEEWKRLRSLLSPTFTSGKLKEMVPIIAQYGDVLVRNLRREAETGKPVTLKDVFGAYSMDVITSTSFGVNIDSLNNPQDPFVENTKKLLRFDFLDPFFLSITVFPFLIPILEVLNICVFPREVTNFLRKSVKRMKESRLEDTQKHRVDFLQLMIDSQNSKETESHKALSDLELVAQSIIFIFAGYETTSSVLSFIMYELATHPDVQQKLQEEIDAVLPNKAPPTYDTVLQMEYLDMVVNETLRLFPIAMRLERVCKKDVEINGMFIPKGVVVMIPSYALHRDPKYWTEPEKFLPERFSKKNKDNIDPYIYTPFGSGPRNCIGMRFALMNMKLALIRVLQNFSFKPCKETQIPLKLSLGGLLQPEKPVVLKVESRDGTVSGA
T1 sequence (P08684 whole entry): as above

| SMILES | half-life [1] | chromatographic logD [2] | inhibition at 1 µM [3] | chromatographic logD [4] | microsomal CLint [6] | inhibition at 10 µM [7] | IC50 [8] | hepatic extraction ratio [9] | solubility kinetic [10] | IC50 [14] | IC50 [16] | IC50 [16, 22] | IC90 [17] | IC90 [17, 22] | solubility kinetic [19] | other results |
| --- | --- | --- | --- | --- | --- | --- | --- | --- | --- | --- | --- | --- | --- | --- | --- | --- |
| CS(=O)(=O)N(Cc1cnc[nH]1)c1ccc(-c2nc3ccccc3s2)cc1 | 32 min | 2.3 | 48% | 1.6 | 55 µL/min/mg | 85% | 1500 nM | 0.68 | > 100 µg/mL |  |  |  |  |  |  | PCR cure rate [5]: 0%; Parasitemia clearance after immunosuppression [5]: 0%; Parasitemia clearance after treatment [5]: 100% |
| CO/N=C(\C)c1ccc(-n2ccnc2)c(NC(=O)c2ccc(-c3ccccc3)nc2)c1 | 66 min | 3.3 |  | 2.5 | 26 µL/min/mg |  |  |  | > 100 µg/mL | > 100000 nM | 9 nM | 13 nM | 24.5 nM | 29.1 nM |  | half-life [11]: 36 min; microsomal CLint [12]: 33 µL/min/mg; half-life [13]: 53 min; microsomal CLint [15]: 48 µL/min/mg |
| CO/N=C(\C)c1ccc(-n2ccnc2)c(NC(=O)c2cncc(-c3ccccc3)n2)c1 | 15 min | 3.7 | 75.9% | 2.8 | 117 µL/min/mg | 91.9% | < 1000 nM | 0.82 | > 50 µg/mL | 4160 nM | 5.3 nM | 6.2 nM | 639 nM | 769 nM | 3.1 µg/mL (≈ 7.52 µM) | IC50 [18]: 6360 nM |
| CS(=O)(=O)N(Cc1c[nH]cn1)c1ccc(-c2ccc(F)cc2)cc1F | 61 min | 2.3 | 51.6% | 1.6 | 28 µL/min/mg | 86.1% | < 1000 nM | 0.52 | > 100 µg/mL | > 100000 nM | 2.6 nM | 2.2 nM | 9.1 nM | 8.4 nM |  |  |
| CN1CCCC(CNCC(O)COc2ccc3cc(Br)ccc3c2)C1 (stereo not given) |  |  |  |  |  |  |  |  |  | 19000 nM |  | 5560 nM |  | > 10000 nM |  | IC50 [20]: 2030 nM and 1700 nM and 540 nM; IC50 [21]: 7120 nM |
| Cc1ccc(-n2ccnc2)c(NC(=O)c2cnc(-c3ccccc3)nc2)c1 | 19 min | 2.7 | 15% | 1.6 | 93 µL/min/mg | 49% | > 10000 nM | 0.78 | > 100 µg/mL | > 100000 nM |  | 23 nM |  | 151 nM |  |  |
| O=C(Nc1ccccc1-n1ccnc1)c1cnc(-c2ccccc2)nc1 | 99 min | 2.4 |  | 1.3 | 18 µL/min/mg | 27% | > 10000 nM | 0.4 | > 100 µg/mL | > 100000 nM |  | 63 nM |  | 148 nM |  |  |
| CCN(Cc1c[nH]cn1)c1ccc(-c2nc3ccccc3s2)cc1 | > 250 min | 3.4 | 37% | 2.1 | < 7 µL/min/mg | 80% | 4000 nM | < 0.23 | > 100 µg/mL | 36000 nM |  | 15.3 nM |  | 156 nM | 3.1 µg/mL (≈ 9.27 µM) | PCR cure rate [5]: 0%; Parasitemia clearance after immunosuppression [5]: 0%; Parasitemia clearance after treatment [5]: 80% |
| CO/N=C(\C)c1ccc(-n2ccnc2)c(NC(=O)c2cnc(-c3ccccn3)s2)c1 | 85 min | 2.7 |  | 1.8 | 20 µL/min/mg |  |  |  | > 100 µg/mL | 68000 nM | 5.5 nM | 2.93 nM | 17 nM | 19.4 nM | 6.3 µg/mL (≈ 15.1 µM) | microsomal CLint [12]: 75 µL/min/mg; half-life [13]: 23 min; IC50 [18]: > 100000 nM; IC50 [21]: > 10000 nM |
